Consider 3 compounds from patent publication US20070287718A1 (priority 2003, published 2007).

The structures appear in SMILES notation.

In assay [1] the test system is Hdm2. Briefly: Western blot, Hdm2 levels in myeloma cells. It counts as cell-based. Background: A western blot detects proteins with antibodies after separation by electrophoresis.
Assay [2] deals with Mcl-1. The assay can be described thus: Western blot, Mcl-1 protein levels in myeloma cell lines. The class given is cell-based.
Assay [3] deals with CTD of RNA polymerase II. Briefly: Western blot, phosphorylation of CTD of RNA polymerase II in myeloma cells. It counts as cell-based. The settings on record: 60 mM DRB. The source says: Arrow indicates cleaved form indicative of apoptosis.
In assay [4] the target is Cdk9/cyclin T1 (Homo sapiens, UniProt P50750). To be noted: CDK 9/Cyclin T (McClue et al., 2002); cited from earlier work.
Assay [5] deals with Mcl-1. The assay can be described thus: Western blotting of Mcl-1 expression, MDN cells. The class given is cell-based, human. The source says:
(§1) The downregulation of Mcl-1 preceded the induction of apoptosis.

For assay [6], the system named is Mcl-1 mRNA. The assay can be described thus: Real time PCR of Mcl-1 mRNA in LP-1 cells. The class given is cell-based. To be noted: normalised to 28S rRNA. In general terms: Real-time PCR tracks product formation cycle by cycle.
The test system of assay [7] is RNA polII on Ser-2. Briefly: Western blotting of RNA pol II phosphorylation, XG-1 cells. To be noted: XG-1, 30 μM, seven hours. The class given is cell-based, human.
Excerpt: as §1

For assay [8], the system named is RNA polymerase II at the serine 2 position of the CTD. Briefly: Western blot, RNA polymerase II CTD phosphorylation in LP-1 cells. The settings on record: 30 μM CYC202.
Assay [9] concerns RNA polII on Ser-2. The assay can be described thus: Western blotting of RNA pol II phosphorylation, MDN cells. To be noted: 30 μM, seven hours. It counts as cell-based, human.
Excerpt: as §1

Assay [10] relates to Mcl-1. Briefly: Western blotting of Mcl-1 expression, XG-1 cells. It counts as cell-based, human. The settings on record: XG-1, 30 μM, seven hours.
Excerpt: as §1

Assay [11] has as its system multiple myeloma cell lines. The assay can be described thus: Apoptosis by TUNEL, flow cytometry. The class given is cell-based. The settings on record: 30 μM CYC202. On the procedure:
All cell lines were obtained from the DSMZ (Deutsche Sammlung von Mikroorganismen und Zellkulturen).
Cells were seeded onto 90 mm diameter plates. […] Cells were harvested at various time points after addition of the drug. After washing once in PBS, cells were fixed in ice-cold 70% v/v ethanol and stored for up to 2 weeks at −20° C. Cells were washed twice in PBS +1% w/v BSA to remove fixative and re-suspended in PBS containing 50 μg/ml propidium iodide and 50 μg/ml RnaseA. After incubation at room temperature for 20 min, cells were analysed using flow cytometry.
A Becton Dickinson LSR flow cytometer was used for these studies, in accordance with the manufacturers recommendations. […] Red fluorescence (575±26 nm) was acquired on a linear scale and pulse width analysis was used to exclude cell doublets and aggregates from the analysis. Cells with a DNA content of between 2 n and 4 n were designated as being in G1, S or G2/M phases of the cell cycle, as defined by the level of red fluorescence. […] The number of cells in each cell cycle compartment was expressed as a percentage of the total number of cells present. Analysis of apoptosis was determined using terminal deoxynucleotidyltransferase dUTP nick end labelling (TUNEL) using the APO-DIRECT kit from BD biosciences (catalog number 556381) according to the manufacturer's instructions.

The test system of assay [12] is Mcl-1. Briefly: Western blotting of Mcl-1 expression, XG-6 cells. It counts as cell-based, human. To be noted: XG-6, 30 μM, seven hours.
Excerpt: as §1

The subject of assay [13] is XG-6. The assay can be described thus: Induction of apoptosis by apo2.7 immunostaining. The class given is cell-based, human. From the text:
(§2) The induction of apoptosis at day 3 by apo2.7 was investigated by immunostaining.

Assay [14] relates to XG-1. Briefly: Induction of apoptosis by apo2.7 immunostaining. The class given is cell-based, human.
Excerpt: as §2

The subject of assay [15] is MDN. Briefly: Induction of apoptosis by apo2.7 immunostaining. The class given is cell-based, human.
Excerpt: as §2

Assay [16] relates to non myeloma cell population. The assay can be described thus: Apoptosis in cells taken from a multiple myeloma patient (ex vivo). The class given is cell-based, human. The arrangement: dose or concentration left out as unconfirmed. The settings on record: […] μM CYC202, day 2, patient cells ex vivo. The source says:
(§3) Myeloma cells were identified by their high expression of CD38.
(§4) Myeloma cells were identified by their high expression of CD38. The number of apoptotic cells in the myeloma cell population was of 46% whereas only 4% of the non myeloma cell population was induced on apoptosis.

In assay [17] the test system is myeloma cell population (high expression of CD38). The assay is described as above. It counts as cell-based, human. The arrangement: dose or concentration left out as unconfirmed. To be noted: […] μM CYC202, day 2, patient cells ex vivo.
Excerpt: as §3, §4

Assay [18] concerns RNA polII on Ser-2. Briefly: Western blotting of RNA pol II phosphorylation, XG-6 cells. It counts as cell-based, human. The settings on record: XG-6, 30 μM, seven hours.
Excerpt: as §1

Cdk9/cyclin T1, sequence (P50750 whole entry, species assumed): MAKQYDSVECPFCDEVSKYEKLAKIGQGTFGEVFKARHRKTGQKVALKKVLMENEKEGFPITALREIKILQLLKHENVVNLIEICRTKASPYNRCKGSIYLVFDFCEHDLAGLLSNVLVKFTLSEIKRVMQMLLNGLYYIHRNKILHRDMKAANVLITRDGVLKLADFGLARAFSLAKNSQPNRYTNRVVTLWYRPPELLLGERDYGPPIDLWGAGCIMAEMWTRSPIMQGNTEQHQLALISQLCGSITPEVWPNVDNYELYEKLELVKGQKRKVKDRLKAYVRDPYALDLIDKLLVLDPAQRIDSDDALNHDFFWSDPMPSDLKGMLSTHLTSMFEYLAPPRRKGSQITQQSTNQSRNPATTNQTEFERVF
Cdk9/cyclin T1, sequence (O60563 whole entry partner, species assumed): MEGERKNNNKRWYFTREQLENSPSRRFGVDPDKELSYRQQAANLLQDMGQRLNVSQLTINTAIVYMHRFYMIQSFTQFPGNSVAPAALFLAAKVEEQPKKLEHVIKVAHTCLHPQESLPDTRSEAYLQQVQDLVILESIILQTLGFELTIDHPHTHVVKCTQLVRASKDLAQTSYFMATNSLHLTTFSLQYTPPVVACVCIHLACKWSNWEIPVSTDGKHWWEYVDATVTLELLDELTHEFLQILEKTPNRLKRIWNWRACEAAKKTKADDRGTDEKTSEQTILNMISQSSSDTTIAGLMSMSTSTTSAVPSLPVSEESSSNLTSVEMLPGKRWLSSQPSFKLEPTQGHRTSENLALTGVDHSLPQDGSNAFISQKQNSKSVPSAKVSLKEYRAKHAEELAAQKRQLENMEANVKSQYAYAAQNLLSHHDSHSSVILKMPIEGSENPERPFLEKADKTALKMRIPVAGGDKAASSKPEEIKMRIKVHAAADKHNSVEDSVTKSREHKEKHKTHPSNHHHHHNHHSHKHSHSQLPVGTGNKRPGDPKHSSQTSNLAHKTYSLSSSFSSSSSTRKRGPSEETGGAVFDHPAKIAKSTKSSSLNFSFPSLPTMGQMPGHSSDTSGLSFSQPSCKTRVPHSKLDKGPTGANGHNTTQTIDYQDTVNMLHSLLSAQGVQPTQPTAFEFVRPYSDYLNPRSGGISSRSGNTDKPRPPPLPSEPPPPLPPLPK

In the case of `OC[C@H]1O[C@@H](n2cnc3cc(Cl)c(Cl)cc32)[C@H](O)[C@@H]1O` [DRB, reference compound], in [1] (myeloma cells, 60 mM DRB), the Hdm2 levels result is “down regulates”. In assay [2] (myeloma cells, 60 mM DRB), the Mcl-1 levels result was “down regulates”. Moreover, in assay [3], the “phosphorylation of the CTD of RNA polymerase II” value is “inhibits phosphorylation”.
`CC[C@H](CO)Nc1nc(NCc2ccccc2)c2ncn(C(C)C)c2n1` (racemic) [roscovitine, 2-[(1-ethyl-2-hydroxyethyl)amino]-6-benzylamine-9-isopropylpurine]: the inhibition in vitro entry in assay [4] is “low μM concentrations”.
In the case of `CC[C@H](CO)Nc1nc(NCc2ccccc2)c2ncn(C(C)C)c2n1` (single isomer, unassigned) [CYC202, 2-(1-R-hydroxymethylpropylamino)-6-benzylamino-9-isopurine], the Mcl-1 expression entry is on record as “total downregulation of Mcl-1” in assay [5] (30 μM of CYC202, seven hours); “decrease of Mcl-1 expression” in assay [5] (6 or […] μM of CYC202, seven hours); “strong downregulation of Mcl-1” in assay [10]; “strong downregulation of Mcl-1” in [12]. Besides, the “levels of Mcl-1 mRNA by real-time PCR” value in assay [6] was “reduced”. For the same compound, the “phosphorylation of RNA polII on Ser-2” value in assay [7], in assay [9] and in assay [18] was “total downregulation” each time. In addition, in assay [8], the “dephosphorylation of RNA polymerase II at serine 2 of the CTD” value was “rapid dephosphorylation of RNA polymerase II at the serine 2 position of the CTD of RNA pol II, by one and a half hours”. For the same compound, the “levels of Hdm2” value in assay [1] (myeloma cell lines, CYC202 treatment) was “also reduced”. Further, in assay [11], the “induction of apoptosis (TUNEL)” value was “rapid apoptosis seen in the majority of cells by eight hours”. The “% of apoptotic cells after 3 day treatment” value is 4% in assay [13] (XG-6, 7.5 μM); 74% in [13] (XG-6, 30 μM); 15% in assay [13] (XG-6, […] μM); 2% in assay [14] (XG-1, 7.5 μM); 70% in assay [14] (XG-1, 30 μM); 18% in assay [14] (XG-1, […] μM). For the same compound, the “% of apoptotic cells after 3 day treatment” value in assay [15] (3 μM) is 3%; in [15] (6 μM), 5%; in [15] (12 μM) it was 41%. In addition, the “induction of apoptosis at day 3 (apo2.7)” value in assay [13] (XG-6, 30 μM) is “significant and strong induction of apoptosis”; in [14] (XG1, 30 μM) it was “significant and strong induction of apoptosis”; in assay [15] (12 μM) it was “significant and strong induction of apoptosis”. In assay [2] (all cell lines studied, CYC202 treatment), the “levels of Mcl-1 protein” value is “rapidly reduced in all cell lines, by three hours”. In addition, in [16], the “non myeloma cell population induced on apoptosis” value is recorded as 4%. For the same compound, the “number of apoptotic cells in the myeloma cell population” value in assay [17] came to 46%.
